In article PMC6068344, “CPP‐E1A fusion peptides inhibit CtBP‐mediated transcriptional repression” (Molecular Oncology, 2018):
No end group written: not given here.

Columns and labels:
[1] = biological target: CtBP1; details: ref Zhang et al., 2002; read-out: K d, binding to CtBP1; cited from earlier work
Description: This idea is strengthened by several studies that have found a correlation between CtBP1/2 overexpression and cancer progression in multiple tumor types, including blood (Senyuk et al., 2002), skin (Deng et al., 2013), breast (Birts et al., 2010; Deng et al., 2012; Di et al., 2013), prostate (Moiola et al., 2014; Wang et al., 2012), ovarian (May et al., 2013; Zhang e ...

[2] = system: H1299 cells; test: Peptide internalization by anti-FLAG immunofluorescence in H1299 cells; format: in vitro ADME, human; details: 20 μM peptide, 30 min, DAPI
Procedure: (§1) H1299 or A375 cells were allowed to adhere to a cover slip overnight in DMEM complete media and grown until they reached approximately 75% confluency on the cover slip surface. After a 30 min treatment with 20 μM peptides, TAT (used as a negative control), TAT‐E1A‐WT, and Pep1‐E1A‐WT, cells were fixed for 10 min using 100% methanol, and permeabilized for 1 min in 100% acetone. Each sample was stained with an anti‐FLAG antibody and detected using an Alexa Fluor 555 anti‐mouse IgG (4409S; Cell Signaling Technology, Danvers, MA, USA). DAPI staining was used to visualize the nucleus.

[3] = system: A375 cells; test: Peptide internalization by anti-FLAG immunofluorescence in A375 cells; format: in vitro ADME, human; details: for Entry into A375 cells: anti-FLAG immunofluorescence as in Figure 2 (20 μM, 30 min)
Procedure: as §1

[4] = system: H1299 cells; test: Subcellular fractionation and anti-FLAG western blot of the nuclear fraction; format: in vitro ADME, human; details: 1-h treatment, anti-FLAG, two biological replicates
Procedure: For cellular fractionation, H1299 cells were treated with 42 μg·mL^−1 digitonin in NEH lysis buffer (20 mM HEPES [pH 7.4], 150 mM NaCl, 0.2 mM EDTA, 2 mM DTT, and 2 mM MgCl2) plus a protease inhibitor cocktail (Roche) for 10 min at 4 °C. The H1299 cell lysate was centrifugated at 15 000 g in a Beckman Coulter Microfuge 22R (Beckman Coulter, Brea, CA, USA) for 10 min at 4 °C to remove the cytosolic fraction. The remaining pellet was washed twice with chilled PBS before the addition of the nuclear lysis buffer (40 mM Tris/HCl [pH 7.4], 100 mM NaCl, 10% glycerol, 2 mM β‐ME, and 0.5% Triton X‐100) plus the protease inhibitor cocktail. The nuclear fraction was incubated at 4 °C for 1 h before the final centrifugation at 15 000 g for 20 min. The soluble nuclear fraction was then used for a western blot analysis to monitor peptide levels within the nuclear fraction using a FLAG antibody (LT0420; LifeTein LLC, Somerset, NJ, USA). The western blot was also probed with primary antibodies against α‐tubulin (sc‐8035; SantaCruz Biotechnology, Dallas, TX, USA) and HDAC1 (ab‐68436; Abcam, Cambridge, MA, USA) as cytoplasmic and nuclear controls, respectively, to confirm subcellular fractionation.

[5] = biological target: T1, 6xHis-CtBP1 and GST-E1A (CtBP1-E1A interaction) (Homo sapiens, UniProt Q13363); test: AlphaScreen assay of the CtBP1-E1A interaction; format: binding; details: AlphaScreen competition with GST-E1A; 125 nM 6xHis-CtBP1, 125 nM GST-E1A; peptide 2 μM to 200 μM; three experiments in triplicate; GraphPad Prism; read-out: IC50 (μM), disruption of the CtBP1-E1A interaction
T1 construct: 6xHis; made in house
Procedure: The AlphaScreen assay was carried out using 6xHis‐CtBP1 and GST‐E1A proteins following the manufacturer's protocol (PerkinElmer, Waltham, MA, USA) unless otherwise specified. GST‐E1A and 6xHis‐CtBP were purified as previously described (Blevins et al., 2015). To confirm inhibition by CPP‐E1A peptides, each peptide was added at varying concentrations (2 μM to 200 μM) to compete with GST‐E1A in the AlphaScreen assay containing 125 nM 6xHis‐CtBP1 and 125 nM GST‐E1A. The IC50 value of each peptide was calculated using the GRAPHPAD PRISM software (GraphPad Software, San Diego, CA, USA).

[6] = Peptide stability in H1299 cells (western blot, fluorescence microscopy); format: in vitro ADME, human; details: 10 μM, 45 min, 2 h, 4 h, 8 h, western blot and FITC fluorescence microscopy
[7] = biological target: 6xHis‐CtBP1 (UniProt Q13363); test: AlphaScreen; details: competition against the CtBP1-E1A interaction, peptide at 250 µM (highest concentration), IC50 printed as 'Not determined', read off a plot

NC(=O)C1=CN([C@@H]2O[C@H](COP(=O)(O)OP(=O)(O)OC[C@H]3O[C@@H](n4cnc5c(N)ncnc54)[C@H](O)[C@@H]3O)[C@@H](O)[C@H]2O)C=CC1 [NADH, nicotinamide adenine dinucleotide]
Kd [1]: 0.1 µM

GSHMGRKKRRQRRRPPQLEEPGQPLDLSCKRPRDYKDDDDK [TAT-E1A-WT]
Localization to the nucleus by immunofluorescence [2]: much lower amount in the nucleus | Entry into A375 cells [3]: can enter the A375 cells | Peptide in the nuclear fraction (western blot) [4]: found in the nuclear fraction | IC50 [5]: 5.6 ± 1.4 µM

GSHMKETWWETWWTEWSQPKKKRKVLEEPGQPLDLSCKRPRDYKDDDDK [Pep1-E1A-WT]
Localization to the nucleus by immunofluorescence [2]: significant amount of localization to the nucleus | Nuclear localization pattern in A375 cells ([3]; anti-FLAG immunofluorescence as in Figure 2): more predominant nuclear localization pattern | Entry into A375 cells [3]: can enter the A375 cells | Peptide in the nuclear fraction (western blot) [4]: found in the nuclear fraction | IC50 [5]: 7.1 ± 1.2 µM | Peptide half-life / stability in vitro [6]: short half‐life

Pep1‐E1A‐WT L35E; S36L
response ([7]; parent: est. 5): 58 % Bound

TAT‐E1A‐WT L27E; S28L
response ([7]; parent: est. 3): 80 % Bound
